Measured values from patent US6420412B2, “Eprosartan dihydate and a process for its production and formulation” (SmithKline Beecham Corporation, priority 1996, dated 2002).

Tests used:
Assay type in all cases: physicochemical
[1] = Storage stability of the drug substance
Experimental: (§1) Eprosartan is anhydrous, and, by itself, is stable at ambient temperature and humidity, as well as at accelerated conditions (30° C./79% RH or 40° C./75% RH for up to 6 months). […] In the former case where the hydrate is obtained by moistening the drug substance, the hydrated form is not stable, and is generally converted back into the anhydrous form during drying.

[2] = Moisture uptake and hydrate conversion on storage at high humidity
Experimental: as §1

[3] = Compactibility in the solid dosage form; conditions: compared to the corresponding anhydrous form

## CCCCc1ncc(/C=C(\Cc2cccs2)C(=O)O)n1Cc1ccc(C(=O)O)cc1 [Eprosartan, (E)-α-[2-n-butyl-1-[(4-carboxyphenyl)methyl]-1H-imidazol-5-yl]methylene-2-thiophenepropionic acid monomethanesulfonate]
[1]; 30° C./79% RH or 40° C./75% RH for up to 6 months
  stability at accelerated conditions: stable
[1]; drug substance by itself, ambient temperature and humidity
  stability: stable
[2]; moistened then stored in closed container, or dry powder at relative humidity of 98% or higher, ambient or higher temperatures, 8 days or longer
  conversion of solid form on storage: converts to the hydrated form
[2]; typically up to 95% RH
  moisture pick-up at higher humidities: does not pick up moisture

## CCCCc1ncc(/C=C(\Cc2cccs2)C(=O)O)n1Cc1ccc(C(=O)O)cc1.CS(=O)(=O)O.O.O [dihydrate, (E)-α-[2-n-butyl-1-[(4-carboxyphenyl)methyl]-1H-imidazol-5-yl]methylene-2-thiophenepropionic acid monomethanesulfonate dihydrate]
[3]
  compactibility in the solid dosage form: more compactible
[1]; no excipient, during drying generally converted back into the anhydrous form
  stability of hydrate obtained by moistening the drug substance: not stable
